# Test: collision cross section in nitrogen (drift tube, single-field); higher = larger gas-phase ion size
# [1] = ion type: [M+H], ion source: ESI, ion mode: Positive
# [2] = ion type: [M+Na], ion source: ESI, ion mode: Positive
# [3] = ion type: [M+H], ion source: APCI, ion mode: Positive
# [4] = ion type: [M+], ion source: APCI, ion mode: Positive
# [5] = ion type: [M-H], ion source: ESI, ion mode: Negative
# 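Further: chemical standards at 10 µM analysed by drift tube IMS-QTOF MS in about 3.95 torr nitrogen, mean of duplicate injections differing ≤1%, mass error below 10 ppm.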
SMILES,collision cross section in nitrogen [1] [Å²],collision cross section in nitrogen [2] [Å²],collision cross section in nitrogen [3] [Å²],collision cross section in nitrogen [4] [Å²],collision cross section in nitrogen [5] [Å²]
CC(=O)NC1(c2cccc(F)c2)CCN(CC[C@@]2(c3ccc(Cl)c(Cl)c3)CN(c3ccccc3)C(=O)CO2)CC1,243.8,250.7,–,–,–
CC(C)(c1ccccc1)c1ccc(Nc2ccc(C(C)(C)c3ccccc3)cc2)cc1,220.3,–,220.2,218.2,222.7
Cc1c(-c2cccnc2)c2ccccc2n1CCCCC(=O)O,176.7,–,176.6,–,183.7
Cc1oc2c(NC(=O)c3c(Cl)cccc3Cl)cccc2c1C(C)(C)O,186.3,190.9,–,–,191.5
Cc1cc(SCc2sc(-c3ccc(C(F)(F)F)c(F)c3)nc2C)ccc1OCC(=O)O,194.2,–,194.4,–,199.5
Cc1cc(CCC(=O)OCCOCCOCCOC(=O)CCc2cc(C)c(O)c(C(C)(C)C)c2)cc(C(C)(C)C)c1O,–,236.4,233.4,234.2,237.8
CC1=NN(c2cccc(S(=O)(=O)O)c2)C(=O)C1,161.7,161.9,–,–,156.5
CCC(C)N(C)C(=O)c1cc2ccccc2c(-c2ccccc2Cl)n1 (stereo not given),185.9,192.8,186.6,–,–
CCC(Cc1ccccc1)(C(=O)c1ccc(N2CCOCC2)cc1)N(C)C (stereo not given),195.7,–,195.7,–,–
CCCCOC(=O)[C@@H](C)Oc1ccc(Oc2ccc(C(F)(F)F)cn2)cc1,195.5,194.5,–,–,–
CCCOc1ccc(S(=O)(=O)N2CCN(CC)CC2)cc1-c1nc2c(CC)n(Cc3ccccn3)nc2c(=O)[nH]1,236.5,256.9,237,–,238.6
CCN(CC)c1ccc2cc(-c3nc4cc(S(N)(=O)=O)ccc4o3)c(=O)oc2c1,205.5,219.6,–,–,218.6
CCN(CC)CCNc1ccc(CNC=O)c2sc3ccc(OC)cc3c(=O)c12,197,198.8,196.9,–,–
CCN1CCC2(CC1)COc1cc3c(cc12)N(C(=O)c1ccc(-c2ccc(-c4nnc(C)o4)cc2C)cc1)CC3,229.1,264.1,229.6,–,–
CCOC(=O)COc1ccc2c(c1)CC(NCC(O)c1cccc(Cl)c1)CC2 (stereo not given),192.2,198.6,192.3,–,194.5
CC[C@H](C)[C@@H](C(=O)O)n1sc2ccccc2c1=O,155.1,169.8,–,–,159.8
CN(C)C(=O)C1(N2CCCCC2)CCN(CC[C@@]2(c3ccc(Cl)c(Cl)c3)CN(C(=O)c3ccccc3)CCO2)CC1,245.5,241.3,244.9,–,–
CN(C)C(=O)NC1(c2ccccc2)CCN(CCC[C@]2(c3ccc(Cl)c(Cl)c3)CCCN(C(=O)c3ccccc3)C2)CC1,252.5,256.5,252.9,–,246.6
CN(C)C(=O)NC1(c2ccccc2)CCN(CC[C@@]2(c3ccc(F)c(F)c3)CN(C(=O)c3ccccc3)CCO2)CC1,241.6,243,241.2,–,–
CNCc1cc(F)ccc1Oc1ccc(Cl)c(Cl)c1,173.4,–,–,–,–

SMILES,collision cross section in nitrogen [1] [Å²],collision cross section in nitrogen [2] [Å²],collision cross section in nitrogen [3] [Å²],collision cross section in nitrogen [4] [Å²],collision cross section in nitrogen [5] [Å²]
COc1cc(C(C)C)c2c(c1)S(=O)(=O)N(COc1cc(=O)n3cccc(OCCN4CCCCC4)c3n1)C2=O,226.9,230.1,228,–,–
COc1ccc(C(=O)Nc2nc3ccccc3c(NCc3ccccc3)c2C#N)cc1,206.7,206.2,207,–,210.8
COCc1nnc(-c2ccc[n+]([O-])c2)n1-c1c(Cl)c(Cl)cc2[nH]c(=O)c(=O)[nH]c12,193.1,193.2,–,–,190.9
COCCOc1cc2cc(C(=O)NC3CCN(C(C)C)CC3)n(CC(=O)Nc3ccc(Cl)cn3)c2cn1,235.6,239.2,234.1,–,235.2
COc1cc(-c2nc(NC(=O)c3cc4cc(C)cc(C)c4n3CC(=O)O)sc2CCC2CCCCC2)c(OC)cc1Cl,258.2,259.5,258.5,–,258.7
COc1ccc2cc(S(=O)(=O)N[C@H](CC(=O)N[C@H](Cc3ccc(CN4[C@H](C)CCC[C@@H]4C)cc3)C(=O)N(C)C(C)C)c3ccc4c(c3)OCO4)ccc2c1,267,277.4,266.1,–,271.5
COc1cccc(-c2ccc(/C=C\CN3CCCCCC3)cc2Cl)c1,185.6,196.9,185.2,–,–
CS(=O)(=O)c1ccc([C@@H](CC2CCCC2)C(=O)Nc2cnccn2)cc1Cl,205.5,207.9,–,–,202.7
CSc1ccc(Oc2ccc(S(N)(=O)=O)cc2CN(C)C)cc1C,195.7,208.1,196.5,–,196.9
C[C@@H](Oc1ccc(CNC(=O)c2cccnc2Oc2ccc3c(c2)OCO3)c(F)c1)C(=O)O,196.3,197.1,–,–,202.7
Cc1cc2c(cc1C(F)(F)F)N(C(=O)Nc1ccc(Oc3cccnc3C)nc1)CC2,213.8,211,214.2,–,209.1
Cc1ccc(Nc2ccc(Nc3ccc(C)cc3S(=O)(=O)O)c3c2C(=O)c2ccccc2C3=O)c(S(=O)(=O)O)c1,235.2,–,–,–,227.8
Cc1nc(-c2ccc3c(c2)CCN(CCC2CCC(NC(=O)/C=C/c4ccc(F)cc4)CC2)CC3)no1 (stereo not given),224.8,236.2,225.5,–,226.8
N#CC(CCc1ccc(Cl)cc1)(Cn1cncn1)c1ccccc1 (stereo not given),183.1,–,183.9,–,–
O=C(N[C@@H](c1ccccc1)[C@@H]1CCCCN1)c1cccc(C(F)(F)F)c1Cl,190.4,200.2,190.3,–,191.6
N#C[C@@H]1CC(F)(F)CN1C(=O)CNC1CC2CCC(C1)N2c1ncccn1 (stereo not given in full),176.9,182.7,176.9,–,–
N#Cc1ccc(C2CCCc3cncn32)cc1 (stereo not given),157.2,–,157,–,–
NCC1(Cc2noc(=O)[nH]2)CCCCC1,154,–,–,–,151.4
O=S(=O)(c1ccc2c(c1)CCCN2)N1CCC[C@@H]2CCCC[C@H]21,178.5,195.9,179.5,–,179.6
OCC(CO)n1cnc(-c2ccc(F)cc2)c1-c1ccnc(Oc2ccccc2)n1,197.1,191,197.6,–,–

# Reference: the supplement of paper PMC12317010
